The test system of test [1] is VEGF. The test is described as follows: VEGF reporter gene based assay (M-9 cells). The note with it: Homo sapiens, hypoxia, 20-24 h, read-out: IC50 for VEGF inhibition under hypoxia. The class given is cell-based. As to the method: A cell line M-9 is MDA-MB-231 which is stably co-transfected with the VEGF-Luc construct (VEGF promoter in pGL2-basic) and a plasmid containing the Geneticin (G418) resistance gene which forms VEGF promoter reporter gene. The expression of the reporter gene in the clone cells, as measured by luciferase activity, is stable.
The effect of Compound A on VEGF inhibition was evaluated using the VEGF reporter gene based assay.
Lysis Assay Buffer (1×) • Tris-Phosphate (pH 7.8)-125 mM, DTT-10 mM, EDTA-10 mM, Glycerol-50% and Triton X-100-5%.
Luciferase Assay Reagent (LAR) • Luciferase Assay Buffer-8 mL, 530 μM ATP-530 μL, 270 μM CoA-1 mL and 170 μM Luciferin-1 mL.
Luciferase Assay Buffer (LAB) (1×) • Tricin (pH 7.8)-20 mM, Magnesia Alba-1.07 mM, MgSO4-2.67 mM, EDTA-0.1 mM and DTT-33.3 mM. ATP Stock made in LAB=5.85 mg/mL CoA Stock made in LAB=2.1 mg/mL Luciferin Stock made in LAB=1.5 mg/mL
1. M-9 cells were sub-cultured and maintained in RPMI-1640 Medium with supplement of 10% FBS, and 4 μL/ml G418 (Stock 100 mg/mL) in a humidified incubator at 37° C. and 5% CO2. 2. Cells were seeded at density of 3×10^4 cells/well in 180 μL volume in tissue culture grade 96 well white plates as well as transparent plates and allowed to adhere for 16-20 h in humidified CO2 incubator (5% CO2) at 37° C. A total of two sets of plates were made, as the incubation conditions are different. 3. Compound A, Sutent® and BSI-201 were diluted in medium serially so that final desired concentrations are achieved in the respective wells. (not more than 0.5% concentration of DMSO in the wells). 4. INCUBATION CONDITIONS: One set of plates are incubated under ambient atmospheric condition with 5% CO2, referred hereafter as NORMOXIC/OXIC PLATE. […] To all the wells, 100 μL Luciferase Assay Reagent (LAR) are added, plates are immediately read for Luminescence on TOPCOUNT™ (Packard, USA). The percentage inhibitions and Inhibitory Concentration (IC50) or Effective Concentration (EC50) are calculated in comparison with Control (untreated) values. […]
On the technique in general: Reporter assays use an easily measured gene product as a stand-in for the process of interest.

Test [2] relates to BT-549. The test is described as follows: Cytotoxicity assay using propidium iodide (PI). The class given is cell-based. The note with it: Homo sapiens, 48 h treatment. As to the method:
(§1) The propidium iodide fluorescence assay (PI) was carried out according to the procedure mentioned in Anticancer Drugs, 1995, 6, 522-32. The assay was developed to characterize the in vitro growth of human tumor cell lines as well as to test the cytotoxic activity of the compounds. Propidium iodide (PI) was used as a dye, which penetrates only damaged cellular membranes. Intercalation complexes are formed by PI with double-stranded DNA, which effect an amplification of the fluorescence. After freezing the cells at −20° C. for 24 h, PI had access to total DNA leading to total cell population counts. Background readings were obtained from cell-free wells containing media and propidium iodide. The human breast cancer cell lines (i.e. […] Control wells were treated with vehicle (DMSO). At the end of the incubation periods, the plates were assayed using PI cytotoxicity assay protocol. Percent cytoxicity was calculated at various drug concentrations and from the graph plotted the IC50 values were determined.

Test [3] relates to MDA-MB-231. Briefly: Cytotoxicity assay using propidium iodide (PI). The note with it: Homo sapiens, 48 h treatment, PI assay. The class given is cell-based, human. The protocol: as §1
The test system of test [4] is MDA-MB-468. Briefly: Cytotoxicity assay using propidium iodide (PI). The class given is cell-based, human. The note with it: Homo sapiens, 48 h treatment, PI assay. As to the method:
as §1

Test [5] concerns MDA-MB-468. The test is described as follows: Cell cycle progression and apoptosis by flow cytometry (sub-G1). The class given is cell-based, human. The note with it: 50 μM. As to the method:
Before analysis, cells were washed twice with PBS to remove the fixative and re-suspended in PBS containing 50 μg/mL propidium iodide and 50 μg/mL RNaseA. After incubation at room temperature (20-35° C.) for 20 min, cells were analyzed using flow cytometry. A Becton Dickinson FACS Calibur flow cytometer (BD, USA) was used for these studies. The argon ion laser set at 488 nm was used as an excitation source. Cells with DNA content between 2n and 4n were designated as being in G1, S and G2/M phases of the cell cycle, as defined by the level of red fluorescence. […] The number of cells in each cell cycle compartment was expressed as a percentage of the total number of cells present. The results are shown in Table 3 and graphically presented in FIG. 3A (MCF-7 cell lines) and FIG. 3B (MDA-MB-231 cell lines).
Comparison of the effect of Compound A and PARP inhibitor BSI-201 (Iniparib developed by Sanofi-Aventis. BSI-201 is prepared in-house) on cell cycle progression and apoptosis was evaluated in two TNBC cell lines. The asynchronous human TNBC cell lines MDA-MB-231 and MDA-MB-468 were seeded in […] tissue culture flask at a density of 0.5×10^6 cells per flask in RPMI 1460 with 10% FCS. After 24 h, cells were treated either with 1.5 and 3.0 μM of Compound A or 50 μM of PARP inhibitor BSI-201 for 72 h. After the incubation cells were harvested (trypsinised) and processed as given in example 6.
For orientation: In flow cytometry, cells or beads pass a laser one at a time.

Test [6] concerns MDA-MB-231. Briefly: Combination in vitro cytotoxicity (PI) assay. The class given is cell-based. The note with it: Homo sapiens, then CM 72 h, read-out: % inhibition of Group IA. The protocol:
The propidium iodide fluorescence assay (PI) was carried out according to the procedure mentioned in Anticancer Drugs, 1995, 6, 522-32.
The assay was developed to characterize the in vitro growth of human tumor cell lines as well as to test the cytotoxic activity of the test compounds. Propidium iodide (PI) was used as a dye, which penetrates only, damaged cellular membranes. Intercalation complexes are formed by PI with double-stranded DNA, which effect an amplification of the fluorescence. After freezing the cells at −20° C. for 24 h, PI had access to total DNA leading to total cell population counts. Background readings were obtained from cell-free wells containing media and propidium iodide.
The human triple negative breast cancer cell line, MDA-MB-231 was seeded at a density of 1500-3000 cells/well in 180 μL of RPMI-1640 medium in a 96-well plate and incubated for about 16 h in humidified 5% CO2 incubator at 37±1° C. to allow the cells to adhere. The schedule consists of six treatment groups. In every treatment group, 20 μL of 10× compound (dissolved first in DMSO and then diluted in cell medium, final DMSO concentration not exceeding 0.5%) was used in the wells and the plate was incubated in humidified 5% CO2 incubator at 37±1° C. The medium was removed from the wells and washed with PBS. 100 μL of PI working solution (7 μg/mL) per well was added and the plates were stored at −80° C. for about 16 h. The plates were thawed and the fluorescence was measured using the POLARstar optima plate reader (USA) at excitation 536 nm and emission 590 nm.
(PI stock solution of 1 mg/mL was prepared by dissolving 1 mg PI in 1 mL of distilled water. PI working solution was prepared by adding 140 μL of stock solution to PBS to make up the volume to […] (7 μg/mL)).
The synergistic effects in TNBC MDA-MB-231 cell line have been evaluated using the CompuSyn software by Chou and Talalay, described in Pharmacological Reviews, 2006, 58, 621-681. Combination index (CI) is used to evaluate if a combination is additive, synergistic or antagonistic. CI<1 is synergistic, CI=1 is additive and CI>1 is antagonistic.

This note sets out measurements from patent US20130237582A1, “PHARMACEUTICAL COMBINATION OF PACLITAXEL AND A CDK INHIBITOR” (Piramal Enterprises Limited, priority 2010, published 2013).

In general, IC50 refers to the concentration that gives 50% inhibition. As usually defined, the inhibition is the change of the read-out against control, counted positive when it falls.

Take `CCN(CC)CCNC(=O)c1c(C)[nH]c(/C=C2\C(=O)Nc3ccc(F)cc32)c1C` [Sunitinib, reference compound]: the IC50 in test [1] is 15 µM; in test [2], 18 µM; in test [3], 7.8 µM; in test [4], 10 µM.

For `NC(=O)c1ccc(I)c([N+](=O)[O-])c1` [BSI-201, reference compound], the IC50 in test [1] was over 100 µM. Further, the “% apoptosis at 72 h” value in test [5] is listed as 12.67%.

In turn, `CC(=O)O[C@H]1C(=O)[C@@]2(C)[C@H]([C@H](OC(=O)c3ccccc3)[C@]3(O)C[C@H](OC(=O)[C@H](O)[C@@H](NC(=O)c4ccccc4)c4ccccc4)C(C)=C1C3(C)C)[C@]1(OC(C)=O)CO[C@@H]1C[C@@H]2O` [Paclitaxel] gave an IC50 in test [3] of 0.9 µM. The inhibition at 0.03 µM in test [6] (paclitaxel 0.03 μM 24 h) was -2.6%. In test [6] (paclitaxel 0.1 μM 24 h), the inhibition at 0.1 µM came to 8.3%. Besides, the inhibition at 0.3 µM in test [6] (paclitaxel 0.3 μM 24 h) amounted to 82.9%. The inhibition at 1 µM in test [6] (paclitaxel 1.0 μM 24 h) was found to be 88.7%. Also, the inhibition at 3 µM in test [6] (paclitaxel 3.0 μM 24 h) was 89.1%.
